Measured values from ChEMBL document CHEMBL1157539, “Thousands of chemical starting points for antimalarial lead identification” (Nature, 2010).

What follows are molecules tested on Plasmodium falciparum (assay: GSK_TCMDC: Inhibition of Plasmodium falciparum 3D7 in whole erythrocytes, using parasite LDH activity as an index of growth.). Conditions: Plasmodium falciparum, 3D7.
Assay type: functional, organism-based
With CCCCC(CC)C(=O)C(NC(=O)[C@H](CSC(c1ccccc1)(c1ccccc1)c1ccccc1)NC(=O)OC(C)(C)C)C(=O)OC (stereo partly specified) the XC50 was 1.02 µM.
Work on CCN1CCN(c2ccc(Nc3ccnc4ccc(Br)cc34)cc2)CC1 yielded an XC50 of 0.3 µM.
In the case of Cc1cccc2nc(-c3cccc(-c4ccc(NC(=O)CC5NC(=O)c6ccccc65)cc4)c3)[nH]c12 (stereo unspecified), the XC50 was 0.289 µM.
O=C(N[C@@H](Cc1ccccc1)C(=O)NCCN1CCCCC1)c1ccc(O)c(-c2ccc(Cl)c(Cl)c2)c1 was tested, and the XC50 was 1.52 µM.
Molecule COc1cc(Cc2cnc(N)nc2N)c2c(c1OC)OC(C)(C)C=C2 has an XC50 of 1.19 µM.
Molecule CCOc1cc(Cc2cnc(N)nc2N)cc(OCC)c1OCCCCC(=O)OC has an XC50 of 0.0448 µM.
With Cc1nc2ccccc2c(O)c1-c1ccc(Cl)cc1 the XC50 was 0.999 µM.
With COc1ccc(CN2CCCN(Cc3cccc(NC(=O)c4ccc5ccccc5c4)c3)CC2)cc1 the XC50 was 1 µM.
With COc1cccc(NC(=O)NC2CCN(c3ccnc(Nc4cc(OC)c(OC)c(OC)c4)n3)C2)c1 (stereo unspecified) the XC50 was 0.856 µM.
CC(Oc1ccc(Cl)cc1)C(=O)Nc1cc(C(F)(F)F)ccc1N1CCOCC1 (stereo unspecified) gave an XC50 of 0.532 µM.
Work on CC1CCN(CC[C@H]2CCCN2S(=O)(=O)c2cccc(NC(=O)c3ccc(-c4ccccc4)cc3)c2)CC1 yielded an XC50 of 1.26 µM.
In the case of N#Cc1ccnc(-c2ccc(CNC3CCN(CC4Cn5c(=O)ccc6ccc(F)c4c65)CC3)cc2)c1 (stereo unspecified), the XC50 was 1.22 µM.
For O=C(/C=C/c1ccc(Cl)c(Cl)c1)NCCCCCN1CCC(c2cn[nH]c2-c2ccccc2)CC1, the XC50 was 1.22 µM.
Cn1c(Nc2nnc(C3CC3)s2)nc2cc(Nc3ccnc(Nc4cccc(CS(C)(=O)=O)c4)n3)ccc21 was tested, and the XC50 was 0.681 µM.
In the case of Cc1ccccc1C1CCN(C2CCC(NC(=O)c3ccc(-c4cc(C(F)(F)F)nn4C)s3)CC2)CC1 (stereo unspecified), the XC50 was 0.846 µM.
With O=C(Nc1ccc(Br)c(C(F)(F)F)c1)c1cccc([N+](=O)[O-])c1 the XC50 was 0.914 µM.
In the case of CCc1ccc(S(=O)(=O)Nc2cccc(CCN3CCC(N4CCCCC4)CC3)c2)cc1, the XC50 was 0.898 µM.
CCOc1ccc(CCC(=O)O)cc1OCC gave an XC50 of 1.03 µM.
CCN(CC)CCNC(=O)c1ccc(NC(=O)c2cc(-c3ccncc3)nc3ccccc23)cc1 showed an XC50 of 0.77 µM.
With CCN1CCN(CCCCNc2c3ccccc3nc3ccccc23)CC1 the XC50 was 0.86 µM.
Nc1nc(N)c2c(ccc3c2ccn3Cc2cccc(F)c2)n1 was tested, and the XC50 was 0.0032 µM.
For CC(CN(C)C)C(=O)Nc1ccc(-c2ccc(-c3nc4cc(C(F)(F)F)ccc4[nH]3)cc2)cc1 (stereo unspecified), the XC50 was 0.747 µM.
Work on COc1ccc(CN2CCC(CNC(C)c3cccc4ccccc34)CC2)cc1 (stereo unspecified) yielded an XC50 of 0.175 µM.
For Cc1[nH]cnc1CSCCN/C(=N\C#N)NCCCCCCCCN/C(=N/C#N)NCCSCc1nc[nH]c1C, the XC50 was 1.27 µM.
Molecule Cc1ccc(Nc2nc3cc(Nc4ccnc(Nc5ccc(CS(C)(=O)=O)cc5)n4)ccc3o2)cc1 has an XC50 of 0.765 µM.
CNC(=O)c1cnc(Nc2ccc(N3CCN(C)CC3)cc2)nc1Nc1cccc(OC(C)C)c1 was tested, and the XC50 was 0.147 µM.
Clc1ccc(CNc2nc(NCCc3c[nH]cn3)nc(NC3CCCCC3)n2)cc1 gave an XC50 of 0.209 µM.
Molecule COc1ccccc1C1CCN(C2CCC(NC(=O)/C=C/c3ccc(C(F)(F)F)cc3F)CC2)CC1 (stereo unspecified) has an XC50 of 0.99 µM.
Work on COc1ccc(-n2c(=O)c3c(n4c(SC(C)C)nnc24)-c2ccccc2CC32CCCCC2)cc1 yielded an XC50 of 0.502 µM.
In the case of COc1ccc(C(=O)C2CC2CN2CC=C(c3c(C)[nH]c4ccccc34)CC2)cc1 (stereo unspecified), the XC50 was 0.304 µM.
CN(C)C(=O)CC(=O)NCc1c(Cl)cccc1Cl was tested, and the XC50 was 0.203 µM.
For COc1ccc(Cn2c(Nc3cccc(C(F)(F)F)c3)nc3cc(C(=O)NC4CC4)cnc32)cc1Cl, the XC50 was 0.727 µM.
For N#Cc1ccc(-c2ccc(C(=O)NCCCCN3CCC(c4ccc5c(c4OCc4ccncc4)CCCC5)CC3)cc2)cc1, the XC50 was 0.757 µM.
Cc1cc(C(=O)Nc2ccc3c(c2)CCN3C2CCN(Cc3ccc(F)cc3Cl)C2)no1 (stereo unspecified) was tested, and the XC50 was 0.189 µM.
With CCCCCCC(CC)c1cc(O)c2c(c1)OC(C)(C)c1ccncc1-2 (stereo unspecified) the XC50 was 0.808 µM.
CCc1c[nH]c2c(N3CCCC3=O)cc(C(=O)N[C@@H](Cc3ccccc3)[C@H](O)CNC3CCCCC3)cc12 was tested, and the XC50 was 0.102 µM.
S=C(Nc1cccc(Cl)c1)NC1CCN(c2ccnc3cc(Cl)ccc23)C1 (stereo unspecified) gave an XC50 of 0.154 µM.
In the case of COc1ccc(-c2nnc(Sc3ccc(C#N)c([N+](=O)[O-])c3)n2CC(C)C)cc1, the XC50 was 0.821 µM.
In the case of c1cnc2ccc(NCc3ccc(-c4ccc(CNC5CCCC5)cc4)cc3)cc2c1, the XC50 was 0.874 µM.
Molecule Cc1nc(N)nc(N)c1-c1cc(Cl)c(N)c(Cl)c1 has an XC50 of 0.805 µM.
For c1cncc(-c2cc(N3CCCCC3)nc(-c3ccncc3)n2)c1, the XC50 was 0.767 µM.
For O=[N+]([O-])c1c(O)nc2c(c1O)CCC2, the XC50 was 1.05 µM.
CCOc1cc(C(=O)Nc2cccnc2)ccc1-c1nc2cc(Cl)c(Cl)cc2[nH]1 was tested, and the XC50 was 1.01 µM.
C#CCN(Cc1ccc2[nH]c(N)nc(=O)c2c1)c1ccc(C(=O)N[C@@H](CCC(=O)O)C(=O)O)cc1 was tested, and the XC50 was 0.217 µM.
COC(=O)CN(C(=O)/C=C/c1ccc(Cl)c(Cl)c1)C1CCC(CN2CCC(c3c[nH]c4ccccc34)CC2)CC1 (stereo unspecified) gave an XC50 of 0.507 µM.
O=C(Nc1cc(C(F)(F)F)ccc1N1CCOCC1)C(Cl)(Cl)Cl was tested, and the XC50 was 0.373 µM.
Cc1cc(N(C)C2CCN(CC3CCCCC3)C2)nc(Nc2ccc(Cl)cc2)n1 (stereo unspecified) was tested, and the XC50 was 0.679 µM.
With O=C(Nc1ccsc1)Nc1cccc(-c2cccc(-c3nc4cc(C(F)(F)F)ccc4[nH]3)c2)c1 the XC50 was 0.15 µM.
Cc1cccc2nc(-c3cccc(-c4ccc(CNCCNC(=O)c5ccnn5C)cc4)c3)[nH]c12 was tested, and the XC50 was 0.167 µM.
With COc1cccc(CNC[C@@H](O)[C@H](Cc2ccccc2)NC(=O)c2cc(N3CCCC3=O)c3[nH]cc(C(C)C)c3c2)c1 the XC50 was 0.529 µM.
Work on COc1ccc2[nH]cc(C3CCN(Cc4ccc(NC(=O)c5ccc(-c6ccccc6)cc5)cc4)CC3)c2c1 yielded an XC50 of 0.765 µM.
Cc1cccc2nc(-c3cccc(-c4cccc(NC(=O)NC5CC5c5ccccc5)c4)c3)[nH]c12 (stereo unspecified) was tested, and the XC50 was 0.705 µM.
With CN1CCN(c2ccc(Cl)cc2NC(=O)C2COc3ccccc3O2)CC1 (stereo unspecified) the XC50 was 0.81 µM.
COc1cccc(C(NC(=O)c2ccccc2)c2ccc3cccnc3c2O)c1 (stereo unspecified) was tested, and the XC50 was 1.08 µM.
FC(F)(F)c1ccc2nccc(NCc3ccccc3)c2c1 gave an XC50 of 1.15 µM.
Work on COc1ccc(-c2nc3c(N)nc(N)nc3nc2C(C)C)cc1 yielded an XC50 of 0.188 µM.
With O=C(Nc1cccc(-c2cccc(-c3nc4ccccc4[nH]3)c2)c1)Nc1ccc2c(c1)OCO2 the XC50 was 0.167 µM.
Work on C=CCn1c(SCC(=O)Nc2cc(Cl)ccc2Cl)nc2sc(C)cc2c1=O yielded an XC50 of 0.0716 µM.
In the case of O=C(Cc1cccc(Cl)c1)Nc1cccc(-c2c[nH]c3nc(Nc4cccc(OCc5ccccc5)c4)ncc23)c1, the XC50 was 1.04 µM.
With CCOC(=O)c1cnc2c(OC)cc(OC)c(Cl)c2c1Nc1cccc(C)c1 the XC50 was 0.844 µM.
Cc1cc(N/N=C/c2cccc([N+](=O)[O-])c2)c2ccc(C(F)(F)F)cc2n1 was tested, and the XC50 was 0.876 µM.
Cc1c(Cc2ccc(F)cc2)c(Cl)nc2nc(N)nc(N)c12 showed an XC50 of 0.861 µM.
CN1CCN(c2ccc3[nH]c(-c4ccc(Cc5cc(Cl)ccc5OCc5ccccc5)o4)nc3c2)CC1 gave an XC50 of 0.807 µM.
Molecule COc1ccc2nccc([C@@H](O)CN3CCC(NCc4ccc5c(c4)N(C)C(=O)CO5)CC3)c2c1 has an XC50 of 0.745 µM.
With Cc1ccc(NC(=O)c2ccc(CN3CCCN(CCC(C)C)CC3)cc2)cc1C the XC50 was 0.913 µM.
With CC1(C)N=C(N)N=C(N)N1OCc1cc(Cl)c(CON2C(N)=NC(N)=NC2(C)C)cc1Cl the XC50 was 0.0378 µM.
CC(=O)N1N=C(c2ccc(F)cc2)Sc2c1nc(C1CCCCC1)n2C(C)=O gave an XC50 of 0.891 µM.
For CC(=O)Nc1cccc(C(=O)Nc2cccc(-c3csc(-c4nc5ccccc5[nH]4)c3)c2)c1, the XC50 was 0.181 µM.
C=CCOC(=O)N1CCC(CNCc2cccc(-c3ccc(-c4nc5cc(C(F)(F)F)ccc5[nH]4)cc3)c2)C1 (stereo unspecified) showed an XC50 of 0.146 µM.
O=C(NCCCCN1CCC(c2ccc([N+](=O)[O-])cc2)CC1)c1ccc(NC(=O)c2ccc(Cl)cc2)cc1 showed an XC50 of 0.757 µM.
For CN(C)C(CNC(=O)c1cc(-c2ccncc2)c(-c2ccc(NC(=O)Nc3cccc(F)c3)cc2)o1)c1ccccc1 (stereo unspecified), the XC50 was 0.772 µM.
Molecule CC1(C)N=C(N)N=C(N)N1O has an XC50 of 0.192 µM.
In the case of COc1ccc2nccc([C@@H](O)CN3CCC(NCc4cnc5c(c4)NC(=O)CS5)CC3)c2c1, the XC50 was 0.86 µM.
In the case of CCc1ccc(-c2nc3cc(NC(=O)c4ccc([N+](=O)[O-])o4)ccc3o2)cc1, the XC50 was 0.25 µM.
O=C(Nc1ccc(-c2cccc(-c3nc4cc(C(F)(F)F)ccc4[nH]3)c2)cc1)c1ccncc1 gave an XC50 of 0.664 µM.
In the case of c1ccc(CN2CCN(CCNc3c4ccccc4nc4ccccc34)CC2)cc1, the XC50 was 0.876 µM.
COC(=O)c1ccc(CC(C)NCC(O)c2cccc(OC(F)(F)F)c2)cc1 (stereo unspecified) showed an XC50 of 0.863 µM.
With Brc1ccccc1CNc1ccnc(NCCn2ccnc2)n1 the XC50 was 0.9 µM.
COC(=O)c1ccc(NC(=O)Nc2ccc(Cn3ncc(N4CCCNCC4)c(Cl)c3=O)cc2)cc1 was tested, and the XC50 was 0.605 µM.
O=[N+]([O-])c1cc(/C=N/Nc2nc3ccccc3[nH]2)ccc1O was tested, and the XC50 was 0.954 µM.
With CC(C)Nc1cc(C(=O)N[C@@H](Cc2ccccc2)[C@H](O)CNCc2cccc(C(F)(F)F)c2)c(F)c(N2CCCCS2(=O)=O)c1 the XC50 was 0.794 µM.
CCN(CCCN1CCCCC1)c1cc(C)nc(Nc2cc(Cl)ccc2C)n1 was tested, and the XC50 was 0.633 µM.
With COc1ccc(CCn2c(=N)c(C(=O)NCc3ccc(C)cc3)cc3c(=O)n4ccccc4nc32)cc1 the XC50 was 1.13 µM.
Molecule O=C(Nc1cccc(-c2cccc(-c3nc4cc(C(F)(F)F)ccc4[nH]3)c2)c1)c1c[nH]cn1 has an XC50 of 0.206 µM.
CN1CCCCC1CCc1cc(C(=O)Nc2ccc(-c3ccc(O)cc3)cc2)ccc1O (stereo unspecified) showed an XC50 of 1.11 µM.
In the case of O=C(Nc1ccc(-c2nc3ccccc3[nH]2)cc1)c1cccc([N+](=O)[O-])c1, the XC50 was 0.22 µM.
For CCN(CCNC(=O)Nc1cc(C(F)(F)F)cc(C(F)(F)F)c1)c1cccc(C)c1, the XC50 was 0.804 µM.
For O=C(Nc1cc(Cl)ccc1O)c1cc(-c2ccccc2O)no1, the XC50 was 1.09 µM.
O=C(NCCCCN1CC=C(c2ccc3c(c2OCc2ccccc2)CCCC3)CC1)c1ccc(-c2ccc(C(F)(F)F)cc2)cc1 gave an XC50 of 0.296 µM.
Work on Cc1ccc2[nH]c(-c3cc(-c4cccc(CCN5CCOCC5)c4)cnc3N)nc2c1 yielded an XC50 of 0.17 µM.
Work on CSc1ccc(CN2CCC(NC(=O)c3ccc(-c4ccc(N(C)C)cc4)s3)CC2)cc1 yielded an XC50 of 1.5 µM.
CC(C)CN1CCC(N(C)c2cc(NC(=O)c3cccc(F)c3)ccn2)CC1 gave an XC50 of 0.848 µM.
Molecule COc1ccc(-c2ccc(NC(=O)c3cccc(C#N)c3)cc2)cc1CN1CCCN(C)CC1 has an XC50 of 0.293 µM.
Work on O=C(Cn1c(CCc2cccc(F)c2F)nc(=O)c2ccccc21)N(CCN1CCCC1)Cc1ccc(-c2ccc(C(F)(F)F)cc2)cc1 yielded an XC50 of 0.711 µM.
For CCC(C)NS(=O)(=O)c1ccc2nc(Nc3ccc(C)c(Cl)c3)n(C3CCCCC3)c2c1 (stereo unspecified), the XC50 was 0.511 µM.
Cn1nccc1C(=O)NCCNCc1cccc(-c2ccc(-c3nc4ccccc4[nH]3)s2)c1 showed an XC50 of 0.303 µM.
